# In the supplement of paper PMC10883282:
# ± gives the standard deviation of the averaged measurements.
# Experiments:
# Experiment in all cases: relative viability vs DMSO control (72 h) (fraction); higher = more viable cells
# A204 = system: A204
# In short: (§1)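 Sarcoma cell lines were seeded in 384-well plates at densities set to reach 80–90% confluence. After 24 h, 2.5 µl of serially diluted compound was added (source plates 10 mM to 0.0002 mM), and plates were held 72 h at 37 °C, 5% CO2, with 0.1% DMSO vehicle and a 5 µM positive control. Relative viability came from ATPLite readings as percent growth, averaged over up to triplicate wells. Data were rescaled so full viability equals 1 and none equals 0.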
# G401 = system: G401
# In short: as §1
# HS729 = system: HS729
# In short: as §1
# KHOS-240S = system: KHOS-240S
# In short: as §1
# MES-SA = system: MES-SA
# In short: as §1
# SK-ES-1 = system: SK-ES-1
# In short: as §1
# SK-LMS-1 = system: SK-LMS-1
# In short: as §1
# SW1353 = system: SW1353
# In short: as §1
# SW684 = system: SW684
# In short: as §1
# SW872 = system: SW872
# In short: as §1
# SW982 = system: SW982
# In short: as §1
# SYO-1 = system: SYO-1
# In short: as §1
smiles,measurement,setting,value
COc1cc2ncnc(Nc3ccc(F)c(Cl)c3)c2cc1OCCCN1CCOCC1 [Gefitinib],relative viability,A204; 0.00017 µM,1.06 ± 0.027
same,relative viability,A204; 0.00051 µM,1.08 ± 0.029
same,relative viability,A204; 0.00152 µM,1.09 ± 0.037
same,relative viability,A204; 0.00457 µM,1.06 ± 0.017
same,relative viability,A204; 0.01372 µM,1.05 ± 0.021
same,relative viability,A204; 0.04115 µM,1.1 ± 0.067
same,relative viability,A204; 0.1235 µM,1.1 ± 0.091
same,relative viability,A204; 0.3704 µM,1.03 ± 0.034
same,relative viability,A204; 1.111 µM,1.04 ± 0.1
same,relative viability,A204; 3.333 µM,0.876 ± 0.075
same,relative viability,A204; 10 µM,0.448 ± 0.04
same,relative viability,G401; 0.00017 µM,1.01 ± 0.045
same,relative viability,G401; 0.00051 µM,1 ± 0.041
same,relative viability,G401; 0.00152 µM,0.9788 ± 0.0043
same,relative viability,G401; 0.00457 µM,0.987 ± 0.0073
same,relative viability,G401; 0.01372 µM,1 ± 0.027
same,relative viability,G401; 0.04115 µM,0.996 ± 0.035
same,relative viability,G401; 0.1235 µM,1 ± 0.026
same,relative viability,G401; 0.3704 µM,0.993 ± 0.016
same,relative viability,G401; 1.111 µM,0.984 ± 0.032
same,relative viability,G401; 3.333 µM,0.835 ± 0.049
same,relative viability,G401; 10 µM,0.582 ± 0.017
same,relative viability,HS729; 0.00017 µM,0.9733 ± 0.0092
same,relative viability,HS729; 0.00051 µM,0.97 ± 0.024
same,relative viability,HS729; 0.00152 µM,1.03 ± 0.026
same,relative viability,HS729; 0.00457 µM,0.947 ± 0.017
same,relative viability,HS729; 0.01372 µM,1.01 ± 0.054
same,relative viability,HS729; 0.04115 µM,1.03 ± 0.073
same,relative viability,HS729; 0.1235 µM,1 ± 0.058
same,relative viability,HS729; 0.3704 µM,1.01 ± 0.021
same,relative viability,HS729; 1.111 µM,0.958 ± 0.093
same,relative viability,HS729; 3.333 µM,0.853 ± 0.11
same,relative viability,HS729; 10 µM,0.621 ± 0.071
same,relative viability,KHOS-240S; 0.00017 µM,1.01 ± 0.049
same,relative viability,KHOS-240S; 0.00051 µM,1.05 ± 0.037
same,relative viability,KHOS-240S; 0.00152 µM,1.01 ± 0.031
same,relative viability,KHOS-240S; 0.00457 µM,1.05 ± 0.019
same,relative viability,KHOS-240S; 0.01372 µM,1.03 ± 0.014
same,relative viability,KHOS-240S; 0.04115 µM,1.04 ± 0.049
same,relative viability,KHOS-240S; 0.1235 µM,1 ± 0.035
same,relative viability,KHOS-240S; 0.3704 µM,1.03 ± 0.041
same,relative viability,KHOS-240S; 1.111 µM,1.01 ± 0.041
same,relative viability,KHOS-240S; 3.333 µM,0.921 ± 0.048
same,relative viability,KHOS-240S; 10 µM,0.318 ± 0.015
same,relative viability,MES-SA; 0.00017 µM,0.97 ± 0.02
same,relative viability,MES-SA; 0.00051 µM,0.948 ± 0.037
same,relative viability,MES-SA; 0.00152 µM,0.959 ± 0.036
same,relative viability,MES-SA; 0.00457 µM,0.952 ± 0.039
same,relative viability,MES-SA; 0.01372 µM,0.937 ± 0.016
same,relative viability,MES-SA; 0.04115 µM,0.962 ± 0.042
same,relative viability,MES-SA; 0.1235 µM,0.969 ± 0.017
same,relative viability,MES-SA; 0.3704 µM,0.969 ± 0.036
same,relative viability,MES-SA; 1.111 µM,0.925 ± 0.023
same,relative viability,MES-SA; 3.333 µM,0.739 ± 0.035
same,relative viability,MES-SA; 10 µM,0.4455 ± 0.0011
same,relative viability,SK-ES-1; 0.00017 µM,0.989 ± 0.028
same,relative viability,SK-ES-1; 0.00051 µM,0.988 ± 0.021
same,relative viability,SK-ES-1; 0.00152 µM,1 ± 0.035
same,relative viability,SK-ES-1; 0.00457 µM,1.01 ± 0.017
same,relative viability,SK-ES-1; 0.01372 µM,0.9857 ± 0.0053
same,relative viability,SK-ES-1; 0.04115 µM,1 ± 0.035
same,relative viability,SK-ES-1; 0.1235 µM,1.01 ± 0.019
same,relative viability,SK-ES-1; 0.3704 µM,0.958 ± 0.053
same,relative viability,SK-ES-1; 1.111 µM,0.864 ± 0.011
same,relative viability,SK-ES-1; 3.333 µM,0.599 ± 0.043
same,relative viability,SK-ES-1; 10 µM,0.168 ± 0.0081
same,relative viability,SK-LMS-1; 0.00017 µM,1.07 ± 0.047
same,relative viability,SK-LMS-1; 0.00051 µM,1.09 ± 0.034
same,relative viability,SK-LMS-1; 0.00152 µM,1.05 ± 0.046
same,relative viability,SK-LMS-1; 0.00457 µM,1.08 ± 0.048
same,relative viability,SK-LMS-1; 0.01372 µM,1.07 ± 0.032
same,relative viability,SK-LMS-1; 0.04115 µM,1.08 ± 0.07
same,relative viability,SK-LMS-1; 0.1235 µM,1.06 ± 0.08
same,relative viability,SK-LMS-1; 0.3704 µM,1.04 ± 0.05
same,relative viability,SK-LMS-1; 1.111 µM,1.05 ± 0.029
same,relative viability,SK-LMS-1; 3.333 µM,0.902 ± 0.049
same,relative viability,SK-LMS-1; 10 µM,0.108 ± 0.011
same,relative viability,SW1353; 0.00017 µM,1.03 ± 0.016
same,relative viability,SW1353; 0.00051 µM,1.073 ± 0.0017
same,relative viability,SW1353; 0.00152 µM,0.999 ± 0.068
same,relative viability,SW1353; 0.00457 µM,1.02 ± 0.058
same,relative viability,SW1353; 0.01372 µM,1.02 ± 0.038
same,relative viability,SW1353; 0.04115 µM,0.979 ± 0.013
same,relative viability,SW1353; 0.1235 µM,0.93 ± 0.034
same,relative viability,SW1353; 0.3704 µM,0.903 ± 0.0098
same,relative viability,SW1353; 1.111 µM,0.928 ± 0.037
same,relative viability,SW1353; 3.333 µM,0.892 ± 0.042
same,relative viability,SW1353; 10 µM,0.168 ± 0.013
same,relative viability,SW684; 0.00017 µM,1.09 ± 0.093
same,relative viability,SW684; 0.00051 µM,1.16 ± 0.015
same,relative viability,SW684; 0.00152 µM,1.09 ± 0.037
same,relative viability,SW684; 0.00457 µM,1.17 ± 0.096
same,relative viability,SW684; 0.01372 µM,1.1 ± 0.03
same,relative viability,SW684; 0.04115 µM,1.15 ± 0.077
same,relative viability,SW684; 0.1235 µM,1.07 ± 0.099
same,relative viability,SW684; 0.3704 µM,1.16 ± 0.013
same,relative viability,SW684; 1.111 µM,1.1 ± 0.034
same,relative viability,SW684; 3.333 µM,1.15 ± 0.033
same,relative viability,SW684; 10 µM,0.424 ± 0.029
same,relative viability,SW872; 0.00017 µM,1 ± 0.014
same,relative viability,SW872; 0.00051 µM,1.02 ± 0.016
same,relative viability,SW872; 0.00152 µM,1.05 ± 0.047
same,relative viability,SW872; 0.00457 µM,1.026 ± 0.01
same,relative viability,SW872; 0.01372 µM,1.03 ± 0.031
same,relative viability,SW872; 0.04115 µM,1.02 ± 0.019
same,relative viability,SW872; 0.1235 µM,1.03 ± 0.05
same,relative viability,SW872; 0.3704 µM,1.04 ± 0.021
same,relative viability,SW872; 1.111 µM,1.01 ± 0.05
same,relative viability,SW872; 3.333 µM,0.868 ± 0.074
same,relative viability,SW872; 10 µM,0.476 ± 0.027
same,relative viability,SW982; 0.00017 µM,0.997 ± 0.017
same,relative viability,SW982; 0.00051 µM,1.01 ± 0.011
same,relative viability,SW982; 0.00152 µM,1.01 ± 0.02
same,relative viability,SW982; 0.00457 µM,1 ± 0.016
same,relative viability,SW982; 0.01372 µM,1 ± 0.022
same,relative viability,SW982; 0.04115 µM,1.012 ± 0.0099
same,relative viability,SW982; 0.1235 µM,0.998 ± 0.022
same,relative viability,SW982; 0.3704 µM,0.989 ± 0.01
same,relative viability,SW982; 1.111 µM,0.957 ± 0.03
same,relative viability,SW982; 3.333 µM,0.675 ± 0.015
same,relative viability,SW982; 10 µM,0.268 ± 0.018
same,relative viability,SYO-1; 0.00017 µM,1.01 ± 0.018
same,relative viability,SYO-1; 0.00051 µM,1.02 ± 0.041
same,relative viability,SYO-1; 0.00152 µM,0.999 ± 0.023
same,relative viability,SYO-1; 0.00457 µM,0.998 ± 0.021
same,relative viability,SYO-1; 0.01372 µM,0.999 ± 0.015
same,relative viability,SYO-1; 0.04115 µM,0.9815 ± 0.0094
same,relative viability,SYO-1; 0.1235 µM,1 ± 0.012
same,relative viability,SYO-1; 0.3704 µM,0.983 ± 0.028
same,relative viability,SYO-1; 1.111 µM,0.955 ± 0.011
same,relative viability,SYO-1; 3.333 µM,0.829 ± 0.011
same,relative viability,SYO-1; 10 µM,0.104 ± 0.031
